The source of these data is patent publication US11045507B2, “Bifidobacterium animalis AMT30 strain and the composition containing the strain of Bifidobacterium animalis AMT30” (priority 2019, dated 2021).

The experiment deals with Bifidobacterium animalis AMT30. Briefly: Ability of Bifidobacterium animalis AMT30 to grow in the presence of selected antibiotics (shared cultures, Garche's liquid medium). Type of experiment: cell-based. To be noted: for growth of AMT30 in the presence of the antibiotic (in words): 24 h shared culture, relative to control culture or inoculum; for The number of B. animalis AMT30 after 24 hours of incubation: inoculum AMT30 4.9 × 10^6 cfu/ml, antibiotic at concentration corresponding to the animal dose per kg b.w., control without antibiotic 2.4 × 10^9. Here is the method:
Studies on the ability to grow of Bifidobacterium animalis AMT30 in the presence on 20 selected antibiotics were performed using shared cultures method. For this purpose Garche's liquid medium was inoculated with both Bifidobacterium animalis AMT30 in an amount of 4.9×10^6 colony forming units/ml and one of 20 antibiotics in concentration corresponding to an antibiotic dose used in animal treatment per kilogram of body weight. The culture was carried out in three parallel tubes under anaerobic conditions at 37° C. for 24 hours. In addition, parallel control culture of the studied strain without presence of selected antibiotics was carried out. The number of the live cells was determined directly after inoculation and after 24 hours. Incubation of bacteria on Petri dishes was carried out at 37° C. for 48 hours under anaerobic conditions (sealed jar with GasPack AN0025A cartridge, Oxoid).

Take `Nc1ccc(S(=O)(=O)[N-]c2cncc(Cl)n2)cc1.[Na+]` [Sodium sulfachloropyrazine]: the “growth of AMT30 in the presence of the antibiotic (in words)” value (“growth of AMT30” for short) is recorded as “Outstanding activity to multiply” and the “The number of B. animalis AMT30 after 24 hours of incubation” value (from here on “The number of B. animalis AMT30”) is recorded as 2.4 × 10^9 cfu/ml.

In the case of `CCCc1ncc(C[n+]2ccccc2C)c(N)n1` [Amprolium], the “growth of AMT30” value is “Outstanding activity to multiply”.

For Neomycin, the “growth of AMT30” value was “Outstanding activity to multiply” and the “The number of B. animalis AMT30” value is 3.3 × 10^7 cfu/ml.

With Colistin, the “growth of AMT30” value is “Outstanding activity to multiply” and the “The number of B. animalis AMT30” value is recorded as 1.9 × 10^9 cfu/ml.

In the case of `Cc1cc(-n2c(=O)[nH]c(=O)n(C)c2=O)ccc1Oc1ccc(SC(F)(F)F)cc1` [Toltrazuril], the “growth of AMT30” value is “Outstanding activity to multiply”.

Regarding `CC[C@H]1OC(=O)C[C@@H](O)[C@H](C)[C@@H](O[C@@H]2O[C@H](C)[C@@H](O[C@H]3C[C@@](C)(O)[C@@H](O)[C@H](C)O3)[C@H](N(C)C)[C@H]2O)[C@@H](CC=O)C[C@@H](C)C(=O)/C=C/C(C)=C/[C@@H]1CO[C@@H]1O[C@H](C)[C@@H](O)[C@@H](OC)[C@H]1OC` [Tylosin], the “growth of AMT30” value was “remained at the level of inoculum”.

`CC[C@H]1OC(=O)C[C@@H](O)[C@H](C)[C@@H](O[C@@H]2O[C@H](C)[C@@H](O)[C@H](N(C)C)[C@H]2O)[C@@H](CCN2C[C@H](C)C[C@H](C)C2)C[C@@H](C)C(=O)/C=C/C(C)=C/[C@@H]1CO[C@@H]1O[C@H](C)[C@@H](O)[C@@H](OC)[C@H]1OC` [Tilmicosin]: the “growth of AMT30” value is given as “remained at the level of inoculum”.

For the compound `c1ccc([C@H]2CN3CCSC3=N2)cc1` [Levamisole], the “growth of AMT30” value is on record as “Outstanding activity to multiply”.

On to `CC[C@H]1OC(=O)C[C@@H](OC(C)=O)[C@H](C)[C@@H](O[C@@H]2O[C@H](C)[C@@H](O[C@H]3C[C@@](C)(O)[C@@H](OC(=O)CC(C)C)[C@H](C)O3)[C@H](N(C)C)[C@H]2O)[C@@H](CC=O)C[C@@H](C)C(=O)/C=C/C(C)=C/[C@@H]1CO[C@@H]1O[C@H](C)[C@@H](O)[C@@H](OC)[C@H]1OC` [Tylvalosin], for which the “The number of B. animalis AMT30” value is listed as 3.2 × 10^5 cfu/ml.

Turning to `COC(=O)Nc1nc2cc(C(=O)c3ccc(F)cc3)ccc2[nH]1` [Flubendazole], the “growth of AMT30” value was “Outstanding activity to multiply”.
